Laboratory results reported in PubChem BioAssay (NCI).
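Compound exposure: 48 hours, 5 concentrations, 96-well plates. TGI marks complete inhibition of growth.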

Columns and labels:
Assay in all cases: growth of human tumour cells (NCI), 48 h
SF-539 CNS = tested on: SF-539 CNS
EKVX NSCLC = tested on: EKVX NSCLC
ACHN renal = tested on: ACHN renal
SF-295 CNS = tested on: SF-295 CNS
COLO 205 colon = tested on: COLO 205 colon
SN12C renal = tested on: SN12C renal
UO-31 renal = tested on: UO-31 renal
M14 melanoma = tested on: M14 melanoma
U251 CNS = tested on: U251 CNS
LOX IMVI melanoma = tested on: LOX IMVI melanoma
HCT-116 colon = tested on: HCT-116 colon
K-562 leukemia = tested on: K-562 leukemia
OVCAR-8 ovarian = tested on: OVCAR-8 ovarian
SK-MEL-28 melanoma = tested on: SK-MEL-28 melanoma
SK-MEL-5 melanoma = tested on: SK-MEL-5 melanoma
MOLT-4 leukemia = tested on: MOLT-4 leukemia
DMS 114 small cell lung = tested on: DMS 114 small cell lung
SW-620 colon = tested on: SW-620 colon
XF 498 CNS = tested on: XF 498 CNS
TK-10 renal = tested on: TK-10 renal
UACC-62 melanoma = tested on: UACC-62 melanoma
HT29 colon = tested on: HT29 colon
HOP-18 NSCLC = tested on: HOP-18 NSCLC
DMS 273 small cell lung = tested on: DMS 273 small cell lung
HL-60(TB) leukemia = tested on: HL-60(TB) leukemia
SF-268 CNS = tested on: SF-268 CNS
HOP-92 NSCLC = tested on: HOP-92 NSCLC
SK-OV-3 ovarian = tested on: SK-OV-3 ovarian
786-0 renal = tested on: 786-0 renal
IGROV1 ovarian = tested on: IGROV1 ovarian
M19-MEL melanoma = tested on: M19-MEL melanoma
LXFL 529 NSCLC = tested on: LXFL 529 NSCLC
A549 NSCLC = tested on: A549 NSCLC
NCI-H460 lung = tested on: NCI-H460 lung
RPMI-8226 leukemia = tested on: RPMI-8226 leukemia
KM20L2 colon = tested on: KM20L2 colon
CCRF-CEM leukemia = tested on: CCRF-CEM leukemia
HCT-15 colon = tested on: HCT-15 colon
DLD-1 colon = tested on: DLD-1 colon
A498 renal = tested on: A498 renal
SNB-78 CNS = tested on: SNB-78 CNS
NCI-H522 lung = tested on: NCI-H522 lung
CAKI-1 renal = tested on: CAKI-1 renal
KM12 colon = tested on: KM12 colon
OVCAR-3 ovarian = tested on: OVCAR-3 ovarian
HOP-62 NSCLC = tested on: HOP-62 NSCLC
OVCAR-4 ovarian = tested on: OVCAR-4 ovarian
SNB-19 CNS = tested on: SNB-19 CNS
UACC-257 melanoma = tested on: UACC-257 melanoma
SNB-75 CNS = tested on: SNB-75 CNS
NCI-H23 lung = tested on: NCI-H23 lung
HCC-2998 colon = tested on: HCC-2998 colon
OVCAR-5 ovarian = tested on: OVCAR-5 ovarian
SK-MEL-2 melanoma = tested on: SK-MEL-2 melanoma
MALME-3M melanoma = tested on: MALME-3M melanoma
RXF 393 renal = tested on: RXF 393 renal
SR leukemia = tested on: SR leukemia
NCI-H226 lung = tested on: NCI-H226 lung

## COc1ccc(/C=C/C(=O)c2c(-c3ccccc3)nn(C)c(=O)c2N2CCCC2)cc1
SF-539 CNS
  TGI: > 100 µM
EKVX NSCLC
  TGI: > 100 µM
ACHN renal
  TGI: > 100 µM
SF-295 CNS
  TGI: > 100 µM
COLO 205 colon
  TGI: > 100 µM
SN12C renal
  TGI: > 100 µM
UO-31 renal
  TGI: > 100 µM
M14 melanoma
  TGI: > 100 µM
U251 CNS
  TGI: > 100 µM
LOX IMVI melanoma
  TGI: > 100 µM
HCT-116 colon
  TGI: > 100 µM
K-562 leukemia
  TGI: > 100 µM
OVCAR-8 ovarian
  TGI: > 100 µM
SK-MEL-28 melanoma
  TGI: > 100 µM
SK-MEL-5 melanoma
  TGI: > 100 µM
MOLT-4 leukemia
  TGI: > 100 µM
DMS 114 small cell lung
  TGI: > 100 µM
SW-620 colon
  TGI: > 100 µM
XF 498 CNS
  TGI: > 100 µM
TK-10 renal
  TGI: > 100 µM
UACC-62 melanoma
  TGI: > 100 µM
HT29 colon
  TGI: > 100 µM
HOP-18 NSCLC
  TGI: > 100 µM
DMS 273 small cell lung
  TGI: > 100 µM
HL-60(TB) leukemia
  TGI: > 100 µM
SF-268 CNS
  TGI: > 100 µM
HOP-92 NSCLC
  TGI: 37.5 µM
SK-OV-3 ovarian
  TGI: > 100 µM
786-0 renal
  TGI: > 100 µM
IGROV1 ovarian
  TGI: > 100 µM
M19-MEL melanoma
  TGI: > 100 µM
LXFL 529 NSCLC
  TGI: > 100 µM
A549 NSCLC
  TGI: > 100 µM
NCI-H460 lung
  TGI: > 100 µM
RPMI-8226 leukemia
  TGI: > 100 µM
KM20L2 colon
  TGI: > 100 µM
CCRF-CEM leukemia
  TGI: > 100 µM
HCT-15 colon
  TGI: > 100 µM
DLD-1 colon
  TGI: > 100 µM
A498 renal
  TGI: > 100 µM

## COC(=O)CCC(=O)Nc1cccc(C(F)(F)F)c1
SNB-78 CNS
  TGI: > 100 µM
SF-539 CNS
  TGI: > 100 µM
EKVX NSCLC
  TGI: > 100 µM
NCI-H522 lung
  TGI: > 100 µM
ACHN renal
  TGI: > 100 µM
SF-295 CNS
  TGI: > 100 µM
COLO 205 colon
  TGI: > 100 µM
SN12C renal
  TGI: > 100 µM
CAKI-1 renal
  TGI: > 100 µM
UO-31 renal
  TGI: > 100 µM
M14 melanoma
  TGI: > 100 µM
KM12 colon
  TGI: > 100 µM
U251 CNS
  TGI: > 100 µM
LOX IMVI melanoma
  TGI: > 100 µM
OVCAR-3 ovarian
  TGI: > 100 µM
HCT-116 colon
  TGI: > 100 µM
K-562 leukemia
  TGI: > 100 µM
OVCAR-8 ovarian
  TGI: > 100 µM
HOP-62 NSCLC
  TGI: > 100 µM
SK-MEL-28 melanoma
  TGI: > 100 µM
OVCAR-4 ovarian
  TGI: > 100 µM
SNB-19 CNS
  TGI: > 100 µM
SK-MEL-5 melanoma
  TGI: > 100 µM
MOLT-4 leukemia
  TGI: > 100 µM
DMS 114 small cell lung
  TGI: > 100 µM
SW-620 colon
  TGI: > 100 µM
XF 498 CNS
  TGI: > 100 µM
TK-10 renal
  TGI: > 100 µM
UACC-62 melanoma
  TGI: > 100 µM
HT29 colon
  TGI: > 100 µM
HOP-18 NSCLC
  TGI: > 100 µM
DMS 273 small cell lung
  TGI: > 100 µM
HL-60(TB) leukemia
  TGI: > 100 µM
SF-268 CNS
  TGI: > 100 µM
HOP-92 NSCLC
  TGI: > 100 µM
SK-OV-3 ovarian
  TGI: > 100 µM
786-0 renal
  TGI: > 100 µM
UACC-257 melanoma
  TGI: > 100 µM
SNB-75 CNS
  TGI: > 100 µM
IGROV1 ovarian
  TGI: > 100 µM
NCI-H23 lung
  TGI: > 100 µM
HCC-2998 colon
  TGI: > 100 µM
M19-MEL melanoma
  TGI: > 100 µM
LXFL 529 NSCLC
  TGI: > 100 µM
OVCAR-5 ovarian
  TGI: > 100 µM
A549 NSCLC
  TGI: > 100 µM
NCI-H460 lung
  TGI: > 100 µM
SK-MEL-2 melanoma
  TGI: > 100 µM
RPMI-8226 leukemia
  TGI: > 100 µM
KM20L2 colon
  TGI: > 100 µM
CCRF-CEM leukemia
  TGI: > 100 µM
HCT-15 colon
  TGI: > 100 µM
MALME-3M melanoma
  TGI: > 100 µM
DLD-1 colon
  TGI: > 100 µM
RXF 393 renal
  TGI: > 100 µM
A498 renal
  TGI: > 100 µM

## COc1ccc(C(=O)NNC(=O)c2nsc3ccccc23)cc1
SNB-78 CNS
  TGI: > 100 µM
SF-539 CNS
  TGI: > 100 µM
EKVX NSCLC
  TGI: > 100 µM
COLO 205 colon
  TGI: > 100 µM
SN12C renal
  TGI: > 100 µM
UO-31 renal
  TGI: > 100 µM
M14 melanoma
  TGI: > 100 µM
KM12 colon
  TGI: > 100 µM
U251 CNS
  TGI: > 100 µM
LOX IMVI melanoma
  TGI: > 100 µM
OVCAR-3 ovarian
  TGI: > 100 µM
HCT-116 colon
  TGI: > 100 µM
K-562 leukemia
  TGI: > 100 µM
OVCAR-8 ovarian
  TGI: > 100 µM
HOP-62 NSCLC
  TGI: > 100 µM
SK-MEL-28 melanoma
  TGI: > 100 µM
OVCAR-4 ovarian
  TGI: > 100 µM
SNB-19 CNS
  TGI: > 100 µM
SK-MEL-5 melanoma
  TGI: > 100 µM
MOLT-4 leukemia
  TGI: > 100 µM
DMS 114 small cell lung
  TGI: > 100 µM
SW-620 colon
  TGI: > 100 µM
TK-10 renal
  TGI: > 100 µM
UACC-62 melanoma
  TGI: > 100 µM
HT29 colon
  TGI: > 100 µM
DMS 273 small cell lung
  TGI: > 100 µM
HL-60(TB) leukemia
  TGI: 82.5 µM
SF-268 CNS
  TGI: > 100 µM
HOP-92 NSCLC
  TGI: > 100 µM
UACC-257 melanoma
  TGI: > 100 µM
IGROV1 ovarian
  TGI: > 100 µM
NCI-H23 lung
  TGI: > 100 µM
HCC-2998 colon
  TGI: > 100 µM
M19-MEL melanoma
  TGI: > 100 µM
LXFL 529 NSCLC
  TGI: > 100 µM
OVCAR-5 ovarian
  TGI: > 100 µM
A549 NSCLC
  TGI: > 100 µM
SK-MEL-2 melanoma
  TGI: > 100 µM
RPMI-8226 leukemia
  TGI: > 100 µM
KM20L2 colon
  TGI: > 100 µM
CCRF-CEM leukemia
  TGI: > 100 µM
HCT-15 colon
  TGI: > 100 µM
RXF 393 renal
  TGI: > 100 µM

## OCC(O)C(O)C(O)c1nn[nH]n1 (stereo unspecified)
SNB-78 CNS
  TGI: > 100 µM
SF-539 CNS
  TGI: > 100 µM
SR leukemia
  TGI: > 100 µM
EKVX NSCLC
  TGI: > 100 µM
NCI-H522 lung
  TGI: > 100 µM
ACHN renal
  TGI: > 100 µM
SF-295 CNS
  TGI: > 100 µM
COLO 205 colon
  TGI: > 100 µM
SN12C renal
  TGI: > 100 µM
CAKI-1 renal
  TGI: > 100 µM
UO-31 renal
  TGI: > 100 µM
M14 melanoma
  TGI: > 100 µM
KM12 colon
  TGI: > 100 µM
U251 CNS
  TGI: > 100 µM
LOX IMVI melanoma
  TGI: > 100 µM
OVCAR-3 ovarian
  TGI: > 100 µM
HCT-116 colon
  TGI: > 100 µM
K-562 leukemia
  TGI: > 100 µM
OVCAR-8 ovarian
  TGI: > 100 µM
HOP-62 NSCLC
  TGI: > 100 µM
OVCAR-4 ovarian
  TGI: > 100 µM
SK-MEL-5 melanoma
  TGI: > 100 µM
MOLT-4 leukemia
  TGI: > 100 µM
DMS 114 small cell lung
  TGI: > 100 µM
SW-620 colon
  TGI: > 100 µM
UACC-62 melanoma
  TGI: > 100 µM
HT29 colon
  TGI: > 100 µM
DMS 273 small cell lung
  TGI: > 100 µM
HL-60(TB) leukemia
  TGI: > 100 µM
SF-268 CNS
  TGI: > 100 µM
HOP-92 NSCLC
  TGI: > 100 µM
SK-OV-3 ovarian
  TGI: > 100 µM
786-0 renal
  TGI: > 100 µM
SNB-75 CNS
  TGI: > 100 µM
NCI-H226 lung
  TGI: > 100 µM
IGROV1 ovarian
  TGI: > 100 µM
NCI-H23 lung
  TGI: > 100 µM
M19-MEL melanoma
  TGI: > 100 µM
LXFL 529 NSCLC
  TGI: > 100 µM
OVCAR-5 ovarian
  TGI: > 100 µM
NCI-H460 lung
  TGI: > 100 µM
SK-MEL-2 melanoma
  TGI: > 100 µM
RPMI-8226 leukemia
  TGI: > 100 µM
CCRF-CEM leukemia
  TGI: > 100 µM
HCT-15 colon
  TGI: > 100 µM
MALME-3M melanoma
  TGI: > 100 µM
DLD-1 colon
  TGI: > 100 µM
